# Measurements published in PubChem BioAssay AID2060508 (Molecular Pharmacology Branch, DTP, NCI, 2025).
# pIC50: −log10 of the molar value.
# Tested on: 454973-116-R2-J3-PDC spheroids, viability, % test/control
# Test: Anticancer human tumor 454973-116-R2-J3-PDC patient-derived pancreatic carcinoma cell line growth inhibition [GQUAD]
# Conditions: spheroids with HUVEC and MSC; for pIC50: curve of first compound; for viability, T/C: stronger effect = lower value
# Procedure, shortened: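 Viability of tumor cells grown as complex spheroids with endothelial and stromal cells, exposed to drug combinations. Top concentration at or near clinical Cmax (else 10 microM), diluted in half-log increments.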
# [1] = second compound 0.0316 µM, first compound 0.0316 µM
# [2] = second compound 0.0316 µM, first compound 0.1 µM
# [3] = second compound 0.0316 µM, first compound 0.316 µM
# [4] = second compound 0.0316 µM, first compound 1 µM
# [5] = second compound 0.0316 µM, first compound 3.16 µM
# [6] = second compound 0.0316 µM, first compound 10 µM
# [7] = second compound 0.1 µM, first compound 0.0316 µM
# [8] = second compound 0.1 µM, first compound 0.1 µM
# [9] = second compound 0.1 µM, first compound 0.316 µM
# [10] = second compound 0.1 µM, first compound 1 µM
# [11] = second compound 0.1 µM, first compound 3.16 µM
# [12] = second compound 0.1 µM, first compound 10 µM
# [13] = second compound 0.316 µM, first compound 0.0316 µM
# [14] = second compound 0.316 µM, first compound 0.1 µM
# [15] = second compound 0.316 µM, first compound 0.316 µM
# [16] = second compound 0.316 µM, first compound 1 µM
# [17] = second compound 0.316 µM, first compound 3.16 µM
# [18] = second compound 0.316 µM, first compound 10 µM
# [19] = second compound 1 µM, first compound 0.0316 µM
# [20] = second compound 1 µM, first compound 0.1 µM
# [21] = second compound 1 µM, first compound 0.316 µM
# [22] = second compound 1 µM, first compound 1 µM
# [23] = second compound 1 µM, first compound 3.16 µM
# [24] = second compound 1 µM, first compound 10 µM
# [25] = second compound 3.16 µM, first compound 0.0316 µM
# [26] = second compound 3.16 µM, first compound 0.1 µM
# [27] = second compound 3.16 µM, first compound 0.316 µM
# [28] = second compound 3.16 µM, first compound 1 µM
# [29] = second compound 3.16 µM, first compound 3.16 µM
# [30] = second compound 3.16 µM, first compound 10 µM
# [31] = second compound 10 µM, first compound 0.0316 µM
# [32] = second compound 10 µM, first compound 0.1 µM
# [33] = second compound 10 µM, first compound 0.316 µM
# [34] = second compound 10 µM, first compound 1 µM
# [35] = second compound 10 µM, first compound 3.16 µM
# [36] = second compound 10 µM, first compound 10 µM
# 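Further: spheroids exposed to compounds for seven days.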
# 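Wherever viability, T/C is given: 100% = DMSO vehicle control viability.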
structure (smiles),measurement,setting,value
CC1COCCN1c1cc(C2(O)CC3CCC(C2)O3)c2cnn(-c3ccn[nH]3)c2n1 (stereo not drawn) + CN(C)c1ccc(Nc2c3ccc(NC(=O)CCN4CCCC4)cc3nc3cc(NC(=O)CCN4CCCC4)ccc23)cc1,pIC50,second compound 0.0316 µM,6.75
same,pIC50,second compound 0.1 µM,6.76
same,pIC50,second compound 0.316 µM,6.81
same,pIC50,second compound 1 µM,6.84
same,pIC50,second compound 3.16 µM,6.78
same,pIC50,second compound 10 µM,7.00
same,"viability, T/C",[1],106%
same,"viability, T/C",[2],63.8%
same,"viability, T/C",[3],35.4%
same,"viability, T/C",[4],23.3%
same,"viability, T/C",[5],21.4%
same,"viability, T/C",[6],15%
same,"viability, T/C",[7],98.6%
same,"viability, T/C",[8],66.8%
same,"viability, T/C",[9],31.2%
same,"viability, T/C",[10],23.4%
same,"viability, T/C",[11],22.4%
same,"viability, T/C",[12],15%
same,"viability, T/C",[13],99.5%
same,"viability, T/C",[14],61.5%
same,"viability, T/C",[15],30.6%
same,"viability, T/C",[16],21%
same,"viability, T/C",[17],23%
same,"viability, T/C",[18],13.1%
same,"viability, T/C",[19],95.3%
same,"viability, T/C",[20],58.4%
same,"viability, T/C",[21],33.1%
same,"viability, T/C",[22],19.5%
same,"viability, T/C",[23],20.1%
same,"viability, T/C",[24],15.5%
same,"viability, T/C",[25],84%
same,"viability, T/C",[26],63.2%
same,"viability, T/C",[27],33.6%
same,"viability, T/C",[28],19.9%
same,"viability, T/C",[29],22.4%
same,"viability, T/C",[30],14.9%
same,"viability, T/C",[31],65.7%
same,"viability, T/C",[32],53%
same,"viability, T/C",[33],30.4%
same,"viability, T/C",[34],24.4%
same,"viability, T/C",[35],23%
same,"viability, T/C",[36],11.2%
CC1COCCN1c1cc(-c2ccnn2C)c2ccnc(-c3ccn[nH]3)c2n1 (stereo not drawn) + Cc1cnc(CNC(=O)c2c(=O)c3ccc(N4CCCN(C)CC4)nc3n3c2sc2ccccc23)cn1,pIC50,second compound 0.0316 µM,7.37
same,pIC50,second compound 0.1 µM,> 7.50
same,pIC50,second compound 0.316 µM,> 7.50
same,pIC50,second compound 1 µM,> 7.50
same,pIC50,second compound 3.16 µM,> 7.50
same,pIC50,second compound 10 µM,> 7.50
same,"viability, T/C",[1],58.3%
same,"viability, T/C",[2],26.2%
same,"viability, T/C",[3],17.6%
same,"viability, T/C",[4],18.5%
same,"viability, T/C",[5],21.3%
same,"viability, T/C",[6],21.7%
same,"viability, T/C",[7],35.7%
same,"viability, T/C",[8],23.1%
same,"viability, T/C",[9],18.9%
same,"viability, T/C",[10],14.7%
same,"viability, T/C",[11],18.3%
same,"viability, T/C",[12],23.3%
same,"viability, T/C",[13],33.7%
same,"viability, T/C",[14],20%
same,"viability, T/C",[15],18.6%
same,"viability, T/C",[16],16.8%
same,"viability, T/C",[17],19.4%
same,"viability, T/C",[18],21.6%
same,"viability, T/C",[19],39.7%
same,"viability, T/C",[20],27.9%
same,"viability, T/C",[21],27%
same,"viability, T/C",[22],24.2%
same,"viability, T/C",[23],22.6%
same,"viability, T/C",[24],19.5%
same,"viability, T/C",[25],40.3%
same,"viability, T/C",[26],34.5%
same,"viability, T/C",[27],31.5%
same,"viability, T/C",[28],27.2%
same,"viability, T/C",[29],20.2%
same,"viability, T/C",[30],20.3%
same,"viability, T/C",[31],0.13%
same,"viability, T/C",[32],0.16%
same,"viability, T/C",[33],2.37%
same,"viability, T/C",[34],0.14%
same,"viability, T/C",[35],0.16%
same,"viability, T/C",[36],0.17%
CC(C)(O)C1CCC(Nc2ccc3ncc(-c4cccc(C(F)(F)F)c4)n3n2)CC1 (stereo not drawn) + Cc1[nH]c2ccc(F)cc2c1-c1nc2c3cccnc3c3ncccc3c2[nH]1,pIC50,second compound 0.0316 µM,5.73
same,pIC50,second compound 0.1 µM,5.73
same,pIC50,second compound 0.316 µM,5.74
same,pIC50,second compound 1 µM,5.80
same,pIC50,second compound 3.16 µM,5.79
same,pIC50,second compound 10 µM,5.86
same,"viability, T/C",[1],112%
same,"viability, T/C",[2],97.4%
same,"viability, T/C",[3],96.6%
same,"viability, T/C",[4],76.8%
same,"viability, T/C",[5],21.8%
same,"viability, T/C",[6],32.2%
same,"viability, T/C",[7],108%
same,"viability, T/C",[8],100%
same,"viability, T/C",[9],92.1%
same,"viability, T/C",[10],78.1%
same,"viability, T/C",[11],23.1%
same,"viability, T/C",[12],29.8%
same,"viability, T/C",[13],102%
same,"viability, T/C",[14],98.1%
same,"viability, T/C",[15],105%
same,"viability, T/C",[16],78.4%
same,"viability, T/C",[17],18.3%
same,"viability, T/C",[18],31.6%
same,"viability, T/C",[19],98.2%
same,"viability, T/C",[20],95.6%
same,"viability, T/C",[21],95.5%
same,"viability, T/C",[22],67.1%
same,"viability, T/C",[23],23.8%
same,"viability, T/C",[24],22.8%
same,"viability, T/C",[25],95.1%
same,"viability, T/C",[26],98.8%
same,"viability, T/C",[27],90.9%
same,"viability, T/C",[28],67.3%
same,"viability, T/C",[29],21.4%
same,"viability, T/C",[30],31.4%
same,"viability, T/C",[31],87.6%
same,"viability, T/C",[32],81.3%
same,"viability, T/C",[33],89%
same,"viability, T/C",[34],59.6%
same,"viability, T/C",[35],21.7%
same,"viability, T/C",[36],30.7%
Nc1ccn(C2OC(CO)C(O)C2(F)F)c(=O)n1 (stereo not drawn) + CN(C)c1ccc(Nc2c3ccc(NC(=O)CCN4CCCC4)cc3nc3cc(NC(=O)CCN4CCCC4)ccc23)cc1,pIC50,second compound 0.0316 µM,> 7.50
same,pIC50,second compound 0.1 µM,> 7.50
same,pIC50,second compound 0.316 µM,> 7.50
same,pIC50,second compound 1 µM,> 7.50
same,pIC50,second compound 3.16 µM,> 7.50
same,pIC50,second compound 10 µM,> 7.50
same,"viability, T/C",[1],19%
same,"viability, T/C",[2],13.3%
same,"viability, T/C",[3],16.6%
same,"viability, T/C",[4],13.1%
same,"viability, T/C",[5],14.7%
same,"viability, T/C",[6],15.6%
same,"viability, T/C",[7],20.7%
same,"viability, T/C",[8],13.5%
same,"viability, T/C",[9],14.9%
same,"viability, T/C",[10],16.6%
same,"viability, T/C",[11],13.2%
same,"viability, T/C",[12],15.4%
same,"viability, T/C",[13],16.9%
same,"viability, T/C",[14],15.3%
same,"viability, T/C",[15],15.3%
same,"viability, T/C",[16],14.8%
same,"viability, T/C",[17],13.3%
same,"viability, T/C",[18],14.8%
same,"viability, T/C",[19],15.6%
same,"viability, T/C",[20],14.4%
same,"viability, T/C",[21],16.4%
same,"viability, T/C",[22],14%
same,"viability, T/C",[23],14.2%
same,"viability, T/C",[24],15.9%
same,"viability, T/C",[25],18%
same,"viability, T/C",[26],14.7%
same,"viability, T/C",[27],17.4%
same,"viability, T/C",[28],13.3%
same,"viability, T/C",[29],14.6%
same,"viability, T/C",[30],14.7%
same,"viability, T/C",[31],22.8%
same,"viability, T/C",[32],14.2%
same,"viability, T/C",[33],16.9%
same,"viability, T/C",[34],17.6%
same,"viability, T/C",[35],19.7%
same,"viability, T/C",[36],19.8%
